# Measured values as given in patent US10865201B2, “Bicyclic compounds useful as GPR120 modulators” (Valo Health, Inc., priority 2016, dated 2020).
# Legend:
# human GPR120 [1] = target: T1, human GPR120 (Homo sapiens, UniProt Q5NUL3); assay: Human GPR120 β-Arrestin Recruitment Assay; type: cell-based; conditions: CHO-K1 cells co-expressing ProLink-tagged human GPR120 and β-Arrestin 2/β-gal fusion; PathHunter; 90 minutes at 37° C.; read-out: β-Arr pEC50 (converted)
# T1 construct: host or cells: CHO-K1
# Text: This in vitro assay tests compounds' ability to activate intracellular signaling via β-Arrestin recruitment to heterologously expressed human GPR120. This functional cellular assay utilizes enzyme fragment complementation with β-galactosidase (β-gal) as a functional reporter (DiscoveRx PathHunter® β-Arrestin assay platform). The human GPR120 receptor (GenBank accession Number NM_181745) was fused in frame with the small enzyme fragment ProLink™ and co-expressed in CHO-K1 cells with a fusion protein of β-Arrestin 2 and the larger, N-terminal deletion mutant of β-gal. Activation by a GPR120 agonist stimulates binding of β-arrestin to the ProLink-tagged GPCR and forces complementation of the two enzyme fragments, resulting in the formation of an active β-gal enzyme. This interaction leads to an increase in enzyme activity that can be measured using chemiluminescent PathHunter® Detection Reagents.
# One day prior to the assay, cells were seeded in a total volume of 20 μl of growth medium into white walled 384-well microplates and incubated at 37° C./5% CO2 overnight. On the day of the assay, growth medium was removed and 20 μl assay buffer (HBSS+10 mM HEPES+0.1% heat-inactivated BSA) were added to each well.
# Test compounds were dissolved in 100% DMSO to a concentration of 10 mM to provide stock solutions. Serial dilutions were performed from stock solutions into assay buffer to obtain intermediate concentrations of 5-fold higher than the concentrations to be tested. 5 μl of the 5x compound solutions were added to the cells and the assay plates were incubated alt 37° C. for 90 minutes, The final concentration of compounds tested in the assay ranged from 1.5 nM to 100 μM. Following incubation, 12.5 μl of PathHunter® detection reagent were added to each well, and plates were incubated at room temperature for 60 minutes. Chemiluminescence was read using an EnVision plate reader (PerkinElmer), raw data were expressed as relative light units (RLU).
# (§1) To determine agonist potencies (EC50 values), non-linear least-squares curve fits of the raw data (RLU) were performed in the GraphPad Prism software package, using the 4-parameter model with variable Hill Slope:
# Reported below in Table 1 are pEC50 values (pEC50=−log(EC50) from curve fit) for compounds of Formula I in this assay, β-Arr pEC50.
# T1 sequence (Q5NUL3 1-377 isoform Q5NUL3-1): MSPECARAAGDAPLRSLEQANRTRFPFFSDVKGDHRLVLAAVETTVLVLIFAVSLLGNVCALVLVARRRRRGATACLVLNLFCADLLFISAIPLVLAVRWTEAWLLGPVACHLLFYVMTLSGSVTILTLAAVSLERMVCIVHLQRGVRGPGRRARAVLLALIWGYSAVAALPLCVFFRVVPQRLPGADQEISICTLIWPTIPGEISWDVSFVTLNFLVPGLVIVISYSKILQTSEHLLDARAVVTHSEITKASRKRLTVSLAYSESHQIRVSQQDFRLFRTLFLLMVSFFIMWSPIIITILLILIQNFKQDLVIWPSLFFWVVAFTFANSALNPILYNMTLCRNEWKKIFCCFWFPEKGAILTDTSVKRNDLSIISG
# T1 sequence (P32121 whole entry partner, the tested form may be a part): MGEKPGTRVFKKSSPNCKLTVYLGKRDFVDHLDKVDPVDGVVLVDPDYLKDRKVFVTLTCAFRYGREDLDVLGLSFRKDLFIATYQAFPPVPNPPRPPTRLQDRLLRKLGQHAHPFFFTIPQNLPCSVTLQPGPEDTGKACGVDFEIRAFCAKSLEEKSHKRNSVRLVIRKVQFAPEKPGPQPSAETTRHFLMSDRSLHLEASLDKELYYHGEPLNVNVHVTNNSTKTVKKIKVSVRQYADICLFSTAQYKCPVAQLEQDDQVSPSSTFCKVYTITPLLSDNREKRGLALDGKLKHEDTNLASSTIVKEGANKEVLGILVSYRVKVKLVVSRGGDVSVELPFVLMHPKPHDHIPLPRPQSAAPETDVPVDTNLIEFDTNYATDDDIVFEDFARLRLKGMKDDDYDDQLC
# human GPR120 [2] = target: T2, human GPR120 (Homo sapiens, UniProt Q5NUL3); assay: Human GPR120 Calcium-Release Assay; type: cell-based; conditions: short variant of human GPR120 in CHO-K1 cells coexpressing Gα16 and mitochondrial apoaequorin; luminescence; read-out: Ca2+ pEC50 (converted)
# T2 construct: expressed in transfected cells; host or cells: CHO-K1 coexpressing Gα16 and mitochondrial apoaequorin
# T2 sequence (Q5NUL3 1-361): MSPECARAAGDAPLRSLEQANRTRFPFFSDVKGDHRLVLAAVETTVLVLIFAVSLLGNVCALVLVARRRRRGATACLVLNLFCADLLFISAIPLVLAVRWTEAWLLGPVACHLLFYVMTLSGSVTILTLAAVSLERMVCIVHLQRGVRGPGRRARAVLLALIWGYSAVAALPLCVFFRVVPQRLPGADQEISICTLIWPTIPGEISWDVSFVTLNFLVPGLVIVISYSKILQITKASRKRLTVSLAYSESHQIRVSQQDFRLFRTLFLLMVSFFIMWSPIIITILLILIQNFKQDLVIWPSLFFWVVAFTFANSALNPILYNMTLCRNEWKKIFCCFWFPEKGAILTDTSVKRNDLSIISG
# Text: This in vitro assay tests compounds' ability to activate heterologously expressed human GPR120 via G-protein coupling leading to generation of inositol 1,4,5-triphosphate and mobilization of intracellular calcium. This functional cellular assay is based on the luminescence of mitochondrial aequorin following intracellular Ca^2+ release. Aequorin is a photoprotein isolated from the jellyfish Aequorea victoria. The active protein is formed in the presence of molecular oxygen from apoaequorin and its cofactor coelenterazine. Binding of Ca^2+ to the active protein induces a conformational change, resulting in oxidation of coelenterazine and subsequent blue luminescence.
# The short variant of the human GPR120 receptor (GenBank accession Number AAI01176) was stably expressed in a CHO-K1 cell line coexpressing Gα16 and mitochondrial apoaequorin.
# Cells were grown to mid-log phase in culture media without antibiotics, were detached with PBS/EDTA, centrifuged and resuspended in assay buffer (DMEM-F12 medium with 15 mM HEPES pH 7.0 and 0.1% protease free BSA) at a concentration of 10^6 cells/mL. Cells were incubated at room temperature for at least 4 hours with 5 μM coelenterazine h.
# Test compounds were dissolved in 100% DMSO to a concentration of 20 mM to provide stock solutions. Serial dilutions were performed from stock solutions in 100% DMSO to obtain intermediate concentrations 200-fold higher than the concentrations to be tested. Each sample was diluted 100-fold into assay buffer. 50 μl of these compound solutions were dispensed into each well of 96-well assay plates. The final concentration of compounds tested in the assay ranged from 5 nM to 100 μM. α-Linolenic acid was used as a reference compound. Each test was performed in duplicate.
# To start the assay, 50 μl of cell suspension were added to each well of the assay plate. The resulting luminescence was recorded using a Hamamatsu Functional Drug Screening System 6000 (FDSS 6000), and raw data were expressed as relative light units (RLU).
# as §1
# Reported below in Table 1 are pEC50 values (pEC50=−log(EC50) from curve fit) for representative compounds of Formula I in this assay, Ca2+pEC50.
SMILES,EC50 (human GPR120 [1]) [µM],EC50 (human GPR120 [2]) [µM]
O=S1(=O)c2ccc(Oc3cccnc3)cc2CN1Cc1c(F)cccc1Cl [Compound 7],3.98,2
O=S1(=O)c2ccc(Oc3cccnc3)cc2CN1CCc1ccccc1 [Compound 17],> 10,
O=S1(=O)c2ccc(Oc3cccnc3)cc2CN1Cc1cccc(Cl)c1 [Compound 9],1.26,1.58
O=C(O)c1ccc(CN2Cc3cc(Oc4cccnc4)ccc3S2(=O)=O)cc1 [Compound 21],> 31.6,
O=S1(=O)c2ccc(Oc3cccnc3)cc2CN1Cc1ccccc1Cl [Compound 8],6.31,
CN1Cc2cc(Oc3cccnc3)ccc2S1(=O)=O [Compound 12],> 31.6,
O=S1(=O)c2ccc(Oc3cccnc3)cc2CN1Cc1ccc(Cl)cc1 [Compound 10],3.16,2.51
O=S1(=O)c2ccc(OC3CCC3)cc2CN1Cc1ccccc1 [Compound 15],0.501,0.794
O=S1(=O)c2ccc(Oc3cccnc3)cc2CN1Cc1ccc(Cl)cc1Cl [Compound 11],7.94,3.98
O=S1(=O)c2ccc(Oc3ccccc3)cc2CN1Cc1ccccc1 [Compound 2],0.501,1
CC(c1ccccc1)N1Cc2cc(Oc3cccnc3)ccc2S1(=O)=O (centres unmarked) [Compound 13],> 10,
O=S1(=O)c2ccc(Oc3cccnc3)cc2CN1Cc1cccnc1 [Compound 19],7.94,15.8
O=S1(=O)c2ccc(Oc3ccc(Cl)c(Cl)c3)cc2CN1Cc1ccccc1 [Compound 5],1.58,
O=S1(=O)c2ccc(Oc3cccnc3)cc2CN1Cc1c(Cl)cccc1Cl [Compound 6],> 10,
O=S1(=O)c2ccc(Oc3cccc(Cl)c3)cc2CN1Cc1ccccc1 [Compound 3],0.158,3.98
O=S1(=O)c2ccc(OC3CC(F)(F)C3)cc2CN1Cc1ccccc1 [Compound 14],12.6,20
O=S1(=O)c2ccc(Oc3ccc(Cl)cc3)cc2CN1Cc1ccccc1 [Compound 4],0.251,7.94
O=S1(=O)c2ccc(Oc3cccnc3)cc2CN1Cc1ccncc1 [Compound 20],3.16,10
O=S1(=O)c2ccc(Oc3cccnc3)cc2CN1Cc1cc(OC(F)(F)F)ccc1Cl [Compound 16],3.16,

# Second part, the compound after the results:
EC50 (human GPR120 [1]) [µM],EC50 (human GPR120 [2]) [µM],SMILES
> 31.6,,O=S1(=O)c2ccc(Oc3ccncc3)cc2CN1c1ccccc1 [Compound 26]
5.01,,O=S1(=O)c2ccc(OCc3ccccc3)cc2CN1c1ccccc1 [Compound 38]
6.31,10,O=C1c2ccc(Oc3cccnc3)cc2CN1Cc1ccccc1 [Compound 46]
> 31.6,,O=S1(=O)c2ccc(OCc3cccnc3)cc2CN1c1ccccc1 [Compound 40]
> 10,,O=S1(=O)c2ccc(Oc3cccnc3)cc2CN1c1cccnc1 [Compound 31]
1,1.26,O=S1(=O)c2ccc(Oc3ccccc3)cc2CN1c1ccccc1 [Compound 25]
2.51,> 100,O=S1(=O)c2ccc(OC3CCC3)cc2CN1c1ccccc1 [Compound 30]
> 31.6,,O=S1(=O)c2ccc(Oc3ccccn3)cc2CN1c1ccccc1 [Compound 27]
0.794,39.8,O=S1(=O)c2ccc(Oc3cccc(Cl)c3)cc2CN1c1ccccc1 [Compound 28]
12.6,,O=S1(=O)c2ccc(Oc3cccnc3)cc2CN1C1CCC1 [Compound 44]
> 10,,O=S1(=O)c2ccc(Oc3ccc(Cl)cc3)cc2CN1c1ccccc1 [Compound 37]
2,,Cc1cc(Oc2cccnc2)cc2c1S(=O)(=O)N(Cc1ccccc1)C2 [Compound 23]
> 31.6,> 100,O=S1(=O)c2ccc(Oc3ccc(Cl)c(Cl)c3)cc2CN1c1ccccc1 [Compound 29]
> 31.6,,O=C(O)c1cccc(CN2Cc3cc(Oc4cccnc4)ccc3S2(=O)=O)c1 [Compound 22]
12.6,,O=S1(=O)c2ccc(Oc3cccnc3)cc2CN1c1ccncc1 [Compound 35]
1.58,,O=S1(=O)c2ccc(Oc3cccnc3)cc2CN1c1cccc(Cl)c1 [Compound 32]
5.01,,O=S1(=O)c2ccc(Oc3cccnc3)cc2CN1c1cccc(OC(F)(F)F)c1 [Compound 33]
> 10,,O=C1c2ccc(Oc3cccnc3)cc2CN1c1ccccc1 [Compound 45]
> 10,,O=C(O)c1cccc(N2Cc3cc(Oc4cccnc4)ccc3S2(=O)=O)c1 [Compound 36]
15.8,10,O=S1(=O)c2ccc(Oc3cccnc3)cc2CN1c1ccccn1 [Compound 34]
7.94,2.51,O=S1(=O)c2ccc(Oc3cccnc3)cc2CN1c1ccccc1 [Compound 24]
> 31.6,,O=S1(=O)c2ccc(Oc3cccnc3)cc2CN1c1cc(OC(F)(F)F)ccc1Cl [Compound 41]
